The values that follow come from patent US7618975B2, “4-arylamino-quinazolines and analogs as activators of caspases and inducers of apoptosis and the use thereof” (Myriad Pharmaceuticals, Inc., priority 2003, dated 2009).

One assay concerns T-47D cells. Kind of assay: Caspase cascade activation (N-(Ac-DEVD)-N′-ethoxycarbonyl-R110 fluorogenic substrate) in T-47D cells. Also: test concentration or dose not given here. The class given is cell-based, Human. The conditions noted are these: T-47D, 24 hr; ratio of net RFU to control.
Turning to `COc1ccc(N(C)c2nc(NCCc3c[nH]cn3)nc3ccccc23)cc1` [Example 46, N^2-[2-(1H-Imidazol-4-yl)-ethyl]-N^4-(4-methoxy-phenyl)-N^4-methyl-quinazoline-2,4-diamine], the “Caspase activity Ratio T-47D (24 hr)” value came out at 12.8.

`COc1ccc(N(C)c2nc(N)nc3ccccc23)cn1` [Example 49, N^4-(6-methoxypyridin-3-yl)-N^4-methyl-quinazoline-2,4-diamine]: the “Caspase activity Ratio T-47D (24 hr)” value is 7.5.

With `COc1ccc(N(C)c2ccnc3ccccc23)cc1` [Example 66, (4-Methoxy-phenyl)-methyl-(quinolin-4-yl)-amine], the “Caspase activity Ratio T-47D (24 hr)” value was 7.2.

For `COc1ccc(N(C)c2nc(CCl)nc3ccccc23)cc1` [Example 73, (2-Chloromethyl-quinazolin-4-yl)-(4-methoxy-phenyl)-methyl-amine], the “Caspase activity Ratio T-47D (24 hr)” value is listed as 6.2.

With `COc1ccc(N(C)c2nc(CO)nc3ccccc23)cc1` [Example 76], the “Caspase activity Ratio T-47D (24 hr)” value came out at 5.6.

For the compound `COc1ccc(N(C)c2nc(CN(C)C)nc3ccccc23)cc1` [Example 77, (2-Dimethylaminomethyl-quinazolin-4-yl)-(4-methoxy-phenyl)-methyl-amine], the “Caspase activity Ratio T-47D (24 hr)” value worked out at 5.7.

Turning to `Cc1nc(Nc2ccc(OC(F)F)cc2)c2ccccc2n1` [Example 78, (4-Difluoromethoxy-phenyl)-(2-methyl-quinazolin-4-yl)-amine], the “Caspase activity Ratio T-47D (24 hr)” value turned out to be 0.6.

Regarding `COc1ccc(Nc2nc(C)nc3ccccc23)cc1F` [Example 79, (3-Fluoro-4-methoxy-phenyl)-(2-methyl-quinazolin-4-yl)-amine], the “Caspase activity Ratio T-47D (24 hr)” value is 0.7.

Take `Cc1nc(Nc2ccc(OC(C)C)cc2)c2ccccc2n1` [Example 80, (4-Isopropoxy-phenyl)-(2-methyl-quinazolin-4-yl)-amine]: the “Caspase activity Ratio T-47D (24 hr)” value was determined as 8.3.

Take `CCc1ccc(Nc2nc(C)nc3ccccc23)cc1` [Example 81, (4-Ethyl-phenyl)-(2-methyl-quinazolin-4-yl)-amine]: the “Caspase activity Ratio T-47D (24 hr)” value came out at 1.9.

Consider `COc1cc(OC)c(Nc2nc(C)nc3ccccc23)c(OC)c1` [Example 82, (2-Methyl-quinazolin-4-yl)-(2,4,6-trimethoxy-phenyl)-amine], for which the “Caspase activity Ratio T-47D (24 hr)” value stood at 1.0.

Turning to `Cc1nc(N(C)c2ccc(OC(F)F)cc2)c2ccccc2n1` [Example 84, (4-Difluoromethoxy-phenyl)-(2-methyl-quinazolin-4-yl)-methyl-amine], the “Caspase activity Ratio T-47D (24 hr)” value was determined as 6.7.

Take `COc1ccc(N(C)c2nc(C)nc3ccccc23)cc1F` [Example 85, (3-Fluoro-4-methoxy-phenyl)-(2-methyl-quinazolin-4-yl)-methyl-amine]: the “Caspase activity Ratio T-47D (24 hr)” value is listed as 7.6.

In the case of `Cc1nc(N(C)c2ccc(OC(C)C)cc2)c2ccccc2n1` [Example 86, (4-Isopropoxy-phenyl)-(2-methyl-quinazolin-4-yl)-methyl-amine], the “Caspase activity Ratio T-47D (24 hr)” value is reported as 6.2.

For `CCc1ccc(N(C)c2nc(C)nc3ccccc23)cc1` [Example 87, (4-Ethyl-phenyl)-(2-methyl-quinazolin-4-yl)-methyl-amine], the “Caspase activity Ratio T-47D (24 hr)” value is 6.3.

In the case of `COc1cc(OC)c(N(C)c2nc(C)nc3ccccc23)c(OC)c1` [Example 88, (2-Methyl-quinazolin-4-yl)-(2,4,6-trimethoxy-phenyl)-methyl-amine], the “Caspase activity Ratio T-47D (24 hr)” value is listed as 7.6.

Consider `COc1ccc(N(C)c2nc(Cl)nc3cccc(Cl)c23)cc1` [Example 90, (2,5-Dichloro-quinazolin-4-yl)-(4-methoxy-phenyl)-methyl-amine], for which the “Caspase activity Ratio T-47D (24 hr)” value was 10.6.

Take `COc1ccc(N(C)c2nc(C)nc3cccc(OC)c23)cc1` [Example 91, (5-Methoxy-2-methyl-quinazolin-4-yl)-(4-methoxy-phenyl)-methyl-amine]: the “Caspase activity Ratio T-47D (24 hr)” value worked out at 8.3.

Staying with this assay, now noted: T-47D, 48 hr; ratio of net RFU to control.
As to `CCN(c1ccc(OC)cc1)c1nc(Cl)nc2ccccc12` [Example 40, (2-Chloro-quinazolin-4-yl)-ethyl-(4-methoxy-phenyl)-amine], the “Caspase activity Ratio T-47D (48 hr)” value is 6.1.

For the compound `COc1ccc(N(c2nc(Cl)nc3ccccc23)C2CCCC2)cc1` [Example 45, (2-Chloro-quinazolin-4-yl)-cyclopentyl-(4-methoxy-phenyl)-amine], the “Caspase activity Ratio T-47D (48 hr)” value came to 1.0.

As for `COc1ccc(N(C)c2nc(NCCc3c[nH]cn3)nc3ccccc23)cc1` [Example 46, N^2-[2-(1H-Imidazol-4-yl)-ethyl]-N^4-(4-methoxy-phenyl)-N^4-methyl-quinazoline-2,4-diamine], the “Caspase activity Ratio T-47D (48 hr)” value worked out at 9.4.

Turning to `COc1ccc(N(C)c2nc(NCCCN(C)C)nc3ccccc23)cc1` [Example 47, N^2-(3-Dimethylamino-propyl)-N^4-(4-methoxy-phenyl)-N^4-methyl-quinazoline-2,4-diamine], the “Caspase activity Ratio T-47D (48 hr)” value is recorded as 11.5.

With `COc1ccc(N(C)c2nc(NCCO)nc3ccccc23)cn1` [Example 48, N^2-(2-Hydroxyethyl)-N^4-(6-methoxypyridin-3-yl)-N^4-methyl-quinazoline-2,4-diamine], the “Caspase activity Ratio T-47D (48 hr)” value is on record as 12.5.

Turning to `COc1ccc(N(C)c2nc(N)nc3ccccc23)cn1` [Example 49, N^4-(6-methoxypyridin-3-yl)-N^4-methyl-quinazoline-2,4-diamine], the “Caspase activity Ratio T-47D (48 hr)” value is listed as 13.4.

As to `COc1ccc(N(C)c2nc(NCCO)nc3cc(OC)c(OC)cc23)cc1` [Example 50, N^2-(2-Hydroxyethyl)-N^4-(4-methoxy-phenyl)-N^4-methyl-6,7-dimethoxyquinazoline-2,4-diamine], the “Caspase activity Ratio T-47D (48 hr)” value amounted to 1.0.

Consider `COc1ccc(N(C)c2nc(Cl)nc3[nH]cnc23)cc1` [Example 51, (2-Chloro-9H-purin-6-yl)-(4-methoxy-phenyl)-methyl-amine], for which the “Caspase activity Ratio T-47D (48 hr)” value is on record as 0.9.

In the case of `COC(=O)c1ccc(N(C)c2nc(Cl)nc3ccccc23)cc1` [Example 52, (2-Chloro-quinazolin-4-yl)-(4-methylcarboxyphenyl)-methyl-amine], the “Caspase activity Ratio T-47D (48 hr)” value was determined as 10.8.

In the case of `CN(c1ccc(O)cc1)c1nc(Cl)nc2ccccc12` [Example 54, (2-Chloro-quinazolin-4-yl)-(4-hydroxyphenyl)-methylamine], the “Caspase activity Ratio T-47D (48 hr)” value was found to be 12.5.

As to `COc1ccc(N(C)c2nc(CF)nc3ccccc23)cc1` [Example 55, (2-Fluoromethyl-quinazolin-4-yl)-(4-methoxy-phenyl)-methyl-amine], the “Caspase activity Ratio T-47D (48 hr)” value is 9.0.

Consider `COc1ccc(N(C)c2nc(Cl)nc3ccc(C)cc23)cc1` [Example 56, (2-Chloro-6-methyl-quinazolin-4-yl)-(4-methoxy-phenyl)-methyl-amine], for which the “Caspase activity Ratio T-47D (48 hr)” value was 4.9.

`COc1ccc(N(C)c2nc(Cl)nc3cc(C)ccc23)cc1` [Example 57, (2-Chloro-7-methyl-quinazolin-4-yl)-(4-methoxy-phenyl)-methyl-amine]: the “Caspase activity Ratio T-47D (48 hr)” value is 6.2.

For `COc1ccc(N(C)c2nc(Cl)nc3cccc(C)c23)cc1` [Example 58, (2-Chloro-5-methyl-quinazolin-4-yl)-(4-methoxy-phenyl)-methyl-amine], the “Caspase activity Ratio T-47D (48 hr)” value amounted to 10.8.

As to `COc1ccc(N(C)c2nc(Cl)nc3c(C)cccc23)cc1` [Example 59, (2-Chloro-8-methyl-quinazolin-4-yl)-(4-methoxy-phenyl)-methyl-amine], the “Caspase activity Ratio T-47D (48 hr)” value is reported as 7.1.

With `COc1ccc(N(C)c2nc(Cl)nc3ccc(Cl)cc23)cc1` [Example 60, (2,6-Dichloro-quinazolin-4-yl)-(4-methoxy-phenyl)-methyl-amine], the “Caspase activity Ratio T-47D (48 hr)” value amounted to 6.5.

Consider `COc1ccc(N(C)c2nc(N(C)c3ccc(OC)cc3)c3cc(Cl)ccc3n2)cc1` [Example 61, 6-Chloro-N^2N^4-bis-(4-methoxy-phenyl)-N^2,N^4-dimethyl-quinazoline-2,4-diamine], for which the “Caspase activity Ratio T-47D (48 hr)” value is on record as 9.2.

As to `COc1ccc(N(C)c2nc(Cl)nc3cc(Cl)ccc23)cc1` [Example 62, (2,7-Dichloro-quinazolin-4-yl)-(4-methoxy-phenyl)-methyl-amine], the “Caspase activity Ratio T-47D (48 hr)” value is reported as 12.7.

In the case of `COc1ccc(N(C)c2nc(N(C)c3ccc(OC)cc3)c3c(Cl)cccc3n2)cc1` [Example 63, 5-Chloro-N^2,N^4-bis-(4-methoxy-phenyl)-N^2,N^4-dimethyl-quinazoline-2,4-diamine], the “Caspase activity Ratio T-47D (48 hr)” value turned out to be 10.9.

For the compound `COc1ccc(N(C)c2nc(OC(C)C)nc3cccc(Cl)c23)cc1` [Example 64, (5-Chloro-2-isopropoxy-quinazolin-4-yl)-(4-methoxy-phenyl)-methyl-amine], the “Caspase activity Ratio T-47D (48 hr)” value stood at 1.

On to `COc1ccc(N(C)c2ccnc3ccccc23)cc1` [Example 66, (4-Methoxy-phenyl)-methyl-(quinolin-4-yl)-amine], for which the “Caspase activity Ratio T-47D (48 hr)” value is reported as 12.5.

Turning to `CN(c1ccc2c(c1)OCO2)c1nc(Cl)nc2ccccc12` [Example 67, (2-Chloro-quinazolin-4-yl)-(3,4-methylenedioxyphenyl)-methyl-amine], the “Caspase activity Ratio T-47D (48 hr)” value was 12.5.

On to `COc1ccc(N(C)c2nc(Cl)nc3ccccc23)cc1OC` [Example 68, (2-Chloro-quinazolin-4-yl)-(3,4-dimethoxy-phenyl)-methyl-amine], for which the “Caspase activity Ratio T-47D (48 hr)” value is reported as 13.1.

Consider `CN(c1ccc(Oc2ccccc2)cc1)c1nc(Cl)nc2ccccc12` [Example 69, (2-Chloro-quinazolin-4-yl)-(4-phenoxy-phenyl)-methyl-amine], for which the “Caspase activity Ratio T-47D (48 hr)” value is 1.

With `CCCOc1ccc(N(C)c2nc(Cl)nc3ccccc23)cc1` [Example 70, (2-Chloro-quinazolin-4-yl)-(4-propoxy-phenyl)-methyl-amine], the “Caspase activity Ratio T-47D (48 hr)” value stood at 11.3.

Turning to `COc1ccc(Oc2ncnc3ccccc23)cc1` [Example 71, 4-(4-Methoxy-phenoxy)-quinazoline], the “Caspase activity Ratio T-47D (48 hr)” value was 6.9.

As for `COc1ccc(N(C)c2nc(CCl)nc3ccccc23)cc1` [Example 73, (2-Chloromethyl-quinazolin-4-yl)-(4-methoxy-phenyl)-methyl-amine], the “Caspase activity Ratio T-47D (48 hr)” value was found to be 5.7.

Regarding `COc1ccc(N(C)c2nc(CO)nc3ccccc23)cc1` [Example 76], the “Caspase activity Ratio T-47D (48 hr)” value came out at 14.1.

Consider `COc1ccc(N(C)c2nc(CN(C)C)nc3ccccc23)cc1` [Example 77, (2-Dimethylaminomethyl-quinazolin-4-yl)-(4-methoxy-phenyl)-methyl-amine], for which the “Caspase activity Ratio T-47D (48 hr)” value is listed as 12.3.

Regarding `COc1ccc(N(C)c2nc(-c3ccccc3)nc3ccccc23)cc1` [Example 83, (4-Methoxy-phenyl)-(2-phenyl-quinazolin-4-yl)-methyl-amine], the “Caspase activity Ratio T-47D (48 hr)” value amounted to 10.8.

Turning to `COc1ccc(N(C)c2nc(Cl)nc3c(Cl)cccc23)cc1` [Example 89, (2,8-Dichloro-quinazolin-4-yl)-(4-methoxy-phenyl)-methyl-amine], the “Caspase activity Ratio T-47D (48 hr)” value is given as 7.8.
